Measured values from patent US12616713B2, “Methods for enhancing vascular density” (priority 2016, dated 2026).

Experiments:
HAECs = test: Spheroid sprouting assay, HAECs; assay type: cell-based, human; conditions: VEGF 50 ng/mL
Protocol: ECs spheroids were generated as described previously (Korff and Augustin, 1998, J Cell Biol 143, 1341-1352). ECs (1000 cells per spheroid) were suspended in EGM-2 medium containing 20% methocel (viscosity: 4000 cps, Sigma) and seeded in non-adherent round-bottom 96-well plates (Sigma). Under these conditions all suspended cells contributed to the formation of a single spheroid. The spheroids were harvested after 24 h embedded into collagen gels. Sprouting was initiated by adding C2C12 CM or EBM-2 medium containing VEGF (50 ng/mL). NMN (0.5 mM), NaHS (0.1 mM), DAPT (20 μM, Cayman Chemical) or SU5416 (10 μM, Sigma) were added to the media wherever mentioned. Angiogenic activity was quantified by measuring the sprout length that had grown out of each spheroid analyzing 8-10 spheroids per group.

NAMPT = NAMPT (Homo sapiens, UniProt P43490); conditions: in vitro (Wang et al. 2014); cited from earlier work
Chain of NAMPT (P43490 whole entry, species assumed): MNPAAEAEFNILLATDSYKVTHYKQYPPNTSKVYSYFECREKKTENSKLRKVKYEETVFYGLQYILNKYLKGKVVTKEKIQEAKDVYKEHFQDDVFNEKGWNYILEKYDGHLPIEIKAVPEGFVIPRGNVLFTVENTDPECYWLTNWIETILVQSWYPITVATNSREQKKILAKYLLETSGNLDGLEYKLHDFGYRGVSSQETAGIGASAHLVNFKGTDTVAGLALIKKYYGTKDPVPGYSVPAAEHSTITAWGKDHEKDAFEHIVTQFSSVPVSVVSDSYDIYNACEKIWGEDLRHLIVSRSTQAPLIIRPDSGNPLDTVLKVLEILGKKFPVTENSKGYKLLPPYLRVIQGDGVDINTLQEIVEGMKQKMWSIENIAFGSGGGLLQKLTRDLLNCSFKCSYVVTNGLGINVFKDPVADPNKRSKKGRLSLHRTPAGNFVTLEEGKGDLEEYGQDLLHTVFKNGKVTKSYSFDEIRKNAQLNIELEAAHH

HUVECs [1] = test: Seahorse analysis of oxygen consumption rate; assay type: cell-based, human; conditions: NaHS 100 μM, NMN 500 μM
Protocol: Oxygen consumption rates were measured in accordance with manufacturer instructions using Seahorse XF96 analyzer (Seahorse Bioscience). Briefly, 40,000 HUVECs were plated onto XF96 plates and incubated overnight at 37° C./5% CO2. Next day, the media was replaced with XF assay media (DMEM), supplemented with glucose (1 g/L), glutamate (2 mM) and pyruvate (1 mM) and the pH was adjusted to 7.4. NaHS (100 μM) and/or NMN (500 μM) were added at the start of the experiment. Oxygen consumption measurements were made approximately every 8 minutes under basal conditions, and after the addition of oligomycin (1 μM). Experiments were replicated in six wells and averaged for each experimental condition.

NAD^+ = test: NAD+ levels in HUVECs; assay type: cell-based, human; conditions: increasing doses of NaHS, 24 hrs
Protocol: Levels of NAD^+ and NADH levels were measured in EC and muscle homogenates using commercially available kit (NAD-NADH Glo, Promega) according to manufacturer's instructions. Alternatively, NAD^+ levels in muscle and liver were measured by assay in-house developed method (Uddin et al., 2016, Front Pharmacol 7, 258). In brief, liver and gastrocnemius samples were homogenized in extraction buffer (10 mM Tris-HCl, 0.5% TritonX-100, 10 mM Nicotinamide, pH7.4) and then centrifuged (12,000×g for 5 min at 4° C.), after which an aliquot of supernatant was taken for protein quantification. After phenol:chloroform:isoamylalcohol (25:24:1) and chloroform extractions the supernatant was separated in two aliquots. One was used to measure total NAD. The other aliquot was acidified with HCl, and then neutralized with NaOH on ice to quantify NAD^+. Samples were mixed in a 96-well plate samples were mixed with alcohol dehydrogenase (ADH) at room temperature. Total NADH and NAD^+ were quantified using a Bio-Rad Imark microplate reader.

SIRT1 = SIRT1 protein levels in HUVECs (Western blot); assay type: cell-based, human; conditions: NaHS 0.1 mM and/or NMN 0.5 mM
Protocol: SDS-PAGE and Western blot analysis were performed according to standard procedures and detected with the ECL detection kit (Bio-rad, Australia). For Western blot analysis antibodies directed against SIRT1 (Sigma), SIRT3 (CST), SIRT6 (SantaCruz), eNOS (Cell Signaling Technology or CST), cleaved Notch1 (CST), total OXPHOS cocktail (Abcam), PGC-1α (Millipore), VEGF (Abcam), VEGFR2 (Abcam), phospho-VEGFR2 (Millipore), Actin (Cell Signaling Technology), Tubulin (Sigma), 14-3-3 (Cell Signaling Technology), GAPDH (SantaCruz) were used. Quantification of band intensities by densitometry was carried out using ImageJ software.

HUVECs [2] = test: Wound scratch assay, HUVECs; assay type: cell-based, human; conditions: 6 h
Protocol: ECs were cultured until forming a confluent monolayer and a scratch was made using a 200 μL pipette tip. Then the cells were allowed to migrate+/−NaHS (0.1 mM) and +/−NMN (0.5 mM) in EGM-2 medium for 6 hrs. Images were taken at the same location using a brightfield inverted microscope (Olympus 2467) every 2 h. The area of gap closure was calculated using ImageJ software. In some experiments, HUVECs were transduced with Scr or SIRT1 siRNA and cultured until forming a confluent monolayer. The cells were exposed to H2O2 (150 μM) for 1 h and a scratch was made using a 200 μL pipette tip. Then the cells were allowed to migrate with PBS (vehicle), NaHS (100 μM) and/or NMN (500 μM) in EGM-2 medium for 6 h. Images were taken at the same location using a brightfield inverted microscope (Olympus 2467) every 2 h. The area of gap closure was calculated using ImageJ software.

CD38 = molecular target: T1, CD38 (Homo sapiens, UniProt P28907); conditions: in vitro (Esande et al. 2013); cited from earlier work
T1 sequence (P28907 1-300): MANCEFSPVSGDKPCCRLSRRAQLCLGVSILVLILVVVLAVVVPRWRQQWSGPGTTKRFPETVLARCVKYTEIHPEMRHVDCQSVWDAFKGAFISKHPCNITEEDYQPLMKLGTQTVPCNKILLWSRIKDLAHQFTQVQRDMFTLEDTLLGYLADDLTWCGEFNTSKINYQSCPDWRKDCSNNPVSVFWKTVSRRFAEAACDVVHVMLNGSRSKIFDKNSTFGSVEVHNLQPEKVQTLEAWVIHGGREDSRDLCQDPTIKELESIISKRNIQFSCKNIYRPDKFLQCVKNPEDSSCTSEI

SMILES: C[C@H](NC(=O)Cc1cc(F)cc(F)c1)C(=O)N[C@H](C(=O)OC(C)(C)C)c1ccccc1 [DAPT, N—[N-(3,5-Difluorophenacetyl)-L-alanyl]-S-phenylglycine t-butyl ester, reference compound]
- sprout length of spheroids (HAECs; DAPT 20 μM, NT or SIRT1 siRNA): increased sprout length irrespective of SIRT1 levels

SMILES: OC(CNc1ccccc1)Cn1c2ccc(Br)cc2c2cc(Br)ccc21 (stereo not shown) [P7C3]
- activity of NAMPT (NAMPT): enhances activity of NAMPT in vitro

SMILES: Cc1cc(C)c(/C=C2\C(=O)Nc3ccccc32)[nH]1 [SU5416, reference compound]
- sprouting of spheroids (HAECs; SU5416 10 μM): completely blocked sprouting

SMILES: [Na+].[SH-] [NaHS, sodium hydrosulfide]
- basal OCR (HUVECs [1]): lowered the basal OCR
- intracellular NAD^+ levels in ECs (NAD^+): raised intracellular NAD^+ levels in ECs in a dose dependent manner
- SIRT1 protein levels (SIRT1): increased SIRT1 protein levels
- cell migration in a scratch assay (HUVECs [2]; NT or SIRT1 siRNA HUVECs, NaHS 0.1 mM, independent of VEGF but dependent on SIRT1): increased cell migration
- cell migration (percentage of closed gaps) (HUVECs [2]; Scr or SIRT1 siRNA HUVECs, H2O2 150 μM 1 h, NaHS 100 μM and/or NMN 500 μM): increased cell migration in a SIRT1-dependent manner

SMILES: O=c1cc(-c2ccc(O)cc2)oc2cc(O)cc(O)c12 [apigenin, 5,7-dihydroxy-2-(4-hydroxyphenyl)-4H-1-benzopyran-4-one]
- CD38 activity (CD38): inhibitors of CD38 activity in vitro

SMILES: O=c1c(O)c(-c2ccc(O)c(O)c2)oc2cc(O)cc(O)c12 [quercetin, 2-(3,4-dihydroxyphenyl)-3,5,7-trihydroxy-4H-chromen-4-one]
- CD38 activity (CD38): inhibitors of CD38 activity in vitro
